Results taken from paper PMC12442099 (ACS Infectious Diseases, 2025).
≈ marks a conversion by molar mass, not a printed value.

Experiments:
[1] = test system: Rcs cell envelope stress response in Escherichia coli; test: Rcs stress reporter assay, HTS format, dose-response curves; type: cell-based; conditions: for Emax: read-out: Max. effect (%); for EC50: read-out: pEC50 (converted)
Procedure: We adapted the reporter assay based on the Rcs stress system for HTS in a screening program at the ELF as the first bacterial phenotypic screen used in this setting. , The assay was performed in a 1536-well format using 25 μM PMBN as a reference (set at 100% effect).
The ELF screened their extensive and diverse library consisting of >500,000 small molecules at a concentration of 10 μM. The assay window (S/B) and Z’ values remained stable (2.0–15.2 and 0.50–0.90, respectively) throughout the screening campaign. The detailed standard screening procedure of the ELF is outlined elsewhere. An overview of the selection process of the screening campaign performed here is outlined in Figure . Initially, 340 compounds with an effect ≥20% of the reference compound PMBN were considered biologically active. Usually, up to 1% of the input library is selected for confirmatory, dose–response, orthogonal and deselection assays. Because the number of biological actives identified in this assay was well below the 1% limit, no orthogonal assays were performed. Instead, all compounds were reordered and tested as dilution series in the Rcs assay to generate dose–response curves (DRCs). Each compound’s pEC50 (−log of EC50, defined as the concentration (mol/L) at which 50% effect is achieved) was determined, and compounds with a pEC50 ≥ 4.7 were selected for further analysis. Next, the compounds were subjected to a mammalian cell-based cytotoxicity assay to exclude toxic compounds that may have a generic effect on membrane integrity. Compounds that reduced mammalian cell viability by 50% were considered cytotoxic. The qualified hit list (QHL) was then generated following triaging based on LC-MS analysis and pEC50 values.
Overnight cultures (ONCs) were prepared by inoculating 5 mL medium from glycerol stocks and incubating the culture for 16–18 h. ONCs were then diluted to an OD600 of 0.05 and grown until an OD600 of 0.3–0.4 was reached.
Assay robustness was confirmed by testing its sensitivity to assay-interfering agents, including colored, aggregating and fluorescent compounds. […] For HTS, bacteria were diluted 50x in prewarmed medium. Fifteen nL of assay compounds (10 μM), DMSO (0.25%), or the reference compound polymyxin B nonapeptide (PMBN) at 25 μM were added to 1536 well plates. Next, 6 μL culture aliquots were added to assay plates containing compounds. Plates were briefly centrifuged for 1 min at 150 x g. Plates were incubated at 37 °C with high humidity and fluorescence (Ex./Em. λ: 485/528 nm) was measured at T = 0 and T = 150 min using a ClarioStar plate reader (BMG Labtech). For data analysis, T = 0 values were subtracted from T = 150 values to calculate Z-score and % effect compared to the reference compound.
Dose–response curves of the 340 initial active compounds were determined following the preparation of serial dilutions (20 nM–20 μM; 7 points, √10). The % effect compared to the reference compound PMBN was calculated and plotted for each compound dilution. The resulting plots were used to calculate pEC50 (-log(EC50), with EC50 being determined as the concentration at which a 50% effect is observed).

E. coli MC4100 = test: Growth inhibition after 7 hours (EC80/EC50); conditions: Escherichia coli, MC4100, 7 h; for EC50: read-out: EC50 MC4100; for IC80: read-out: EC80 MC4100
E. coli TOP10F' = test: Growth inhibition after 7 hours (EC80/EC50); conditions: Escherichia coli, 7 h; for EC50: read-out: EC50 TOP10F'; for IC80: read-out: EC80 TOP10F'
E. coli 25922 = test: MIC broth microdilution; type: cell-based; conditions: Escherichia coli, CAMHB, median of triplicates, read-out: MIC (μg/mL) E. coli 25922
Procedure: (§1) The antibacterial activity of the compounds was determined by measuring their minimum inhibitory concentration (MIC) values using the broth microdilution method according to the Clinical and Laboratory Standards Institute guidelines (CLSI). Briefly, a single colony from blood agar plates was inoculated into cation-adjusted Mueller-Hinton broth (CAMHB) and grown to OD600 = 0.5. Next, 10^6 CFU/mL were added to a 2-fold serial dilution series of test compounds and incubated at 37 °C, 600 rpm overnight (18–20 h for Gram-negative strains, 20–24 h for Gram-positive strains), after which the plates were visually inspected for bacterial growth. MICs are reported as the median of triplicates.

E. coli TOP10F’ = test: MIC broth microdilution; type: cell-based; conditions: Escherichia coli; screening strain; CAMHB, median of triplicates; read-out: MIC (μg/mL) E. coli TOP10F’
Procedure: as §1

E. coli BW25113 = test: MIC broth microdilution; type: cell-based; conditions: Escherichia coli, CAMHB, median of triplicates, read-out: MIC (μg/mL) E. coli BW25113
Procedure: as §1

K. pneumoniae 13883 = test: MIC broth microdilution; type: cell-based; conditions: Klebsiella pneumoniae, clinical isolate, CAMHB, median of triplicates, read-out: MIC (μg/mL) K. pneumoniae 13883
Procedure: as §1

P. aeruginosa 27853 = test: MIC broth microdilution; type: cell-based; conditions: Pseudomonas aeruginosa, clinical isolate, CAMHB, median of triplicates, read-out: MIC (μg/mL) P. aeruginosa 27853
Procedure: as §1

A. baumanni 9955 = test: MIC broth microdilution; type: cell-based; conditions: Acinetobacter baumannii, clinical isolate, CAMHB, median of triplicates, read-out: MIC (μg/mL) A. baumanni 9955
Procedure: as §1

S. aureus USA 300 = test: MIC broth microdilution; type: cell-based; conditions: Staphylococcus aureus, USA300; clinical isolate; CAMHB, median of triplicates; read-out: MIC (μg/mL) S. aureus USA 300
Procedure: as §1

[2] = test system: Rcs stress response in E. coli TOP10F’; test: Rcs stress kinetics reporter assay; type: cell-based; conditions: chloramphenicol 1 μg/mL, negative control
Procedure: Stress was measured in real-time during 10 h following compound treatment by normalizing the fluorescence intensity for growth as indicated by the optical density at 600 nm (OD600) of the culture.
3 Bacterial stress responses of different compound classes as shown in panel (A). (B) Rcs, (C) σE, (D) Cpx, and (E) heat shock. Graphs show fold change in fluorescence normalized for OD600 at EC80 compound concentrations over the course of 10h. Fold change values were determined by comparing OD600‑normalized fluorescence of compound-treated samples to DMSO treated samples. PMBN is used as a CE stress-inducing control at 25 μg/mL, which is the concentration used as a control during the screening campaign. Chloramphenicol at 1 μg/mL is used as a non-stress-inducing antibiotic control. Error bars indicate standard deviation of the average of triplicate samples from at least two independent experiments. (F) Overview of the different stress responses based on the compound class.
For lower throughput analysis under laboratory conditions, cultures grown to OD600 of 0.3–0.4 were diluted to a final concnetration of 0.05 OD600 units/mL in black, clear-bottom 96-well plates (Greiner Bio-One B.V.). Plates were incubated in a Biotek HTX or H1 plate reader (Agilent Technologies) at 37 °C with continuous shaking. Kinetic studies were performed by measuring OD600 and fluorescence (Ex./Em. Λ: 485/528 nm) every 20 min for 10h. For end point measurements, fluorescence was measured at T = 0 and once more at T = 150 min.

Row | SMILES | Emax [1] [%] | EC50 [1] [µM] | EC50 (E. coli MC4100) [µg/mL] | IC80 (E. coli MC4100) [µg/mL] | EC50 (E. coli TOP10F') [µg/mL] | IC80 (E. coli TOP10F') [µg/mL] | MIC (E. coli 25922) [µg/mL] | MIC (E. coli TOP10F’) [µg/mL] | MIC (E. coli BW25113) [µg/mL] | MIC (K. pneumoniae 13883) [µg/mL] | MIC (P. aeruginosa 27853) [µg/mL] | MIC (A. baumanni 9955) [µg/mL] | MIC (S. aureus USA 300) [µg/mL] | induction of stress response systems (Rcs, σE, Cpx, heat shock) [2]
1 | Cc1cc(-c2c(F)cc3c(=O)c(C(=O)O)cn(CCF)c3c2F)cc(C)n1 [A1] | 26.1 | 0.955 | 0.5 (≈ 1.33 µM) | 2 (≈ 5.31 µM) | 0.016 (≈ 0.0425 µM) | 0.063 (≈ 0.167 µM) | 0.5 (≈ 1.33 µM) | < 0.03 | 0.25 (≈ 0.664 µM) | 1 (≈ 2.66 µM) | 16 (≈ 42.5 µM) | 1 (≈ 2.66 µM) | 1 (≈ 2.66 µM) | 
2 | CNn1cc(C(=O)O)c(=O)c2cc(F)c(N3CCN(C(C)C)CC3)cc21 [A4] | 20.8 | 0.214 | 0.25 (≈ 0.69 µM) | 1 (≈ 2.76 µM) | 2 (≈ 5.52 µM) | 4 (≈ 11 µM) | 0.25 (≈ 0.69 µM) | 0.125 (≈ 0.345 µM) | 0.25 (≈ 0.69 µM) | 0.5 (≈ 1.38 µM) | 16 (≈ 44.1 µM) | 2 (≈ 5.52 µM) | 64 (≈ 177 µM) | 
3 | O=C(N[C@H](CO)[C@H](O)c1ccc([N+](=O)[O-])cc1)C(Cl)Cl [Chloramphenicol] |  |  |  |  |  |  |  |  |  |  |  |  |  | did not induce any of the stress response systems tested
4 | Cc1ncc(CNC2CCN(CCn3c(=O)ccc4ncc(OCc5ccnn5C)cc43)CC2)cc1Cl [B3] | 37.9 | 5.62 | 2 (≈ 3.83 µM) | > 16 | 0.016 (≈ 0.0306 µM) | 1 (≈ 1.92 µM) | 16 (≈ 30.6 µM) | 2 (≈ 3.83 µM) | 16 (≈ 30.6 µM) | 64 (≈ 123 µM) | > 64 | 8 (≈ 15.3 µM) | 0.125 (≈ 0.239 µM) | 
